Like-named read-outs stand apart in the source and are kept apart here. Ends that are not written are not given here.
Legend:
HLA supertype alleles = format: binding, human
H2^bxd mice [1] = assay: CTL response after peptide/IFA immunization, in situ ELISA; format: in vivo, mouse; conditions: peptide/IFA immunization of H2^bxd mice
HLA-A*2402 = HLA-A*2402 (Homo sapiens, UniProt P04439, D101N/D140Y/D185E/E176V/E190D/F33S/G103R/G107R/I119L/I121M/I306V/K335N/L105A/L180Q/L300P/N151K/N90K/Q86E/Q94H/R106L/R138H/R89G/T104I/T345S/V100E/W191G/Y123F); assay: HLA class I peptide binding assay (purified HLA, IC50)
[2] = test system: HLA-A*0201/K^b transgenic mice; assay: CTL response after DNA immunization, 51Cr release assay (lytic units); format: in vivo, mouse
Excerpt: However, the magnitude and the frequency of the responses varied greatly between epitopes.
This assay to measure CTL activity is well known in the art. […] The LU calculation allows quantifying responses and thus readily comparing different experimental values.

H2^bxd mice [3] = assay: HTL responses, primary IFN-γ ELISPOT on CD4 T cells; format: in vivo, mouse
Experimental: H2^bxd mice were immunized intramuscularly with 100 μg of a vaccine HBV HTL epigene construct or the individual peptides emulsified in CFA. Eleven days after the immunization CD4 T cells were purified from splenocytes and HTL responses were measured using a primary IFN-γ ELISPOT assay.
Eleven days after immunization, no booster immunizations were administered, CD4 T cells were purified from the spleen, and peptide specific HTL responses were measured in a primary γ-IFN ELISPOT assay.
The immunogenicity of the HTL epitopes was also characterized using H2^bxd mice.
This construct was tested for immunogenicity in H2^bxd mice (FIG. 28B), measuring IFN-γ production by CD4+ T-lymphocytes using an ELISPOT assay.

[4] = A1 or A24 supertype, three related alleles
[5] = A2, A3 or B7 supertype, five most common members

For `CC(C)C[C@H](NC(=O)[C@H](C)NC(=O)[C@H](CO)NC(=O)[C@H](C)NC(=O)[C@@H](NC(=O)[C@H](CC(=O)O)NC(=O)[C@H](CC(C)C)NC(=O)[C@H](CC(C)C)NC(=O)[C@@H](N)CC(=O)O)[C@@H](C)O)C(=O)N[C@@H](Cc1ccc(O)cc1)C(=O)O` [core 419], which “XRN (number of supertype alleles bound ≦500 nM)” value (HLA supertype alleles; [4]) is on record?
The value was 3.

Which results are given for `CC[C@H](C)[C@H](NC(=O)[C@@H](NC(=O)[C@H](Cc1ccccc1)NC(=O)[C@H](CCCNC(=N)N)NC(=O)[C@H](CCCNC(=N)N)NC(=O)[C@H](CC(C)C)NC(=O)[C@H](CS)NC(=O)[C@H](CCSC)NC(=O)[C@H](Cc1c[nH]c2ccccc12)NC(=O)[C@@H](N)CCCNC(=N)N)[C@@H](C)CC)C(=O)O` [env 236]?
Murine Immunogenicity (SU) (H2^bxd mice [1]): 339.6 SU; XRN (number of supertype alleles bound ≦500 nM) (HLA supertype alleles; [4]): 3

`CSCC[C@H](NC(=O)[C@H](CCSC)NC(=O)[C@@H](N)Cc1c[nH]c2ccccc12)C(=O)N[C@@H](Cc1c[nH]c2ccccc12)C(=O)N[C@@H](Cc1ccc(O)cc1)C(=O)N[C@@H](Cc1c[nH]c2ccccc12)C(=O)NCC(=O)N1CCC[C@H]1C(=O)N[C@@H](CO)C(=O)N[C@@H](CC(C)C)C(=O)N[C@@H](Cc1ccc(O)cc1)C(=O)O` [env 359] was tested. Which “XRN (number of supertype alleles bound ≦500 nM)” value (HLA supertype alleles; [4]) did it give?
The value was 3.

`CC[C@H](C)[C@H](NC(=O)[C@@H]1CCCN1C(=O)[C@H](CC(C)C)NC(=O)[C@@H](N)CC(C)C)C(=O)N[C@@H](Cc1ccccc1)C(=O)N[C@@H](Cc1ccccc1)C(=O)N[C@@H](CS)C(=O)N[C@@H](CC(C)C)C(=O)N[C@@H](Cc1c[nH]c2ccccc12)C(=O)N[C@H](C(=O)O)C(C)C` [env 378] was tested. Which “XRN (number of supertype alleles bound ≦500 nM)” value (HLA supertype alleles; [5]) did it give?
Its value is 1.

`C[C@H](N)C(=O)N[C@@H](CO)C(=O)N[C@@H](Cc1ccccc1)C(=O)N[C@@H](CS)C(=O)NCC(=O)N[C@@H](CO)C(=O)N1CCC[C@H]1C(=O)N[C@@H](Cc1ccc(O)cc1)C(=O)O` [pol 166] was tested. Which “XRN (number of supertype alleles bound ≦500 nM)” value (HLA supertype alleles; [4]) did it give?
The value was 3.

`N[C@@H](CO)C(=O)N[C@@H](Cc1ccccc1)C(=O)N[C@@H](CS)C(=O)NCC(=O)N[C@@H](CO)C(=O)N1CCC[C@H]1C(=O)N[C@@H](Cc1ccc(O)cc1)C(=O)N[C@@H](CO)C(=O)N[C@@H](Cc1c[nH]c2ccccc12)C(=O)O` [pol 167] was tested. Which “XRN (number of supertype alleles bound ≦500 nM)” value (HLA supertype alleles; [4]) did it give?
The value was 3.

And the IC50 (HLA-A*2402)?
Its IC50 is 146 nM.

`CC(C)[C@H](NC(=O)CNC(=O)CNC(=O)[C@@H](NC(=O)[C@@H](NC(=O)[C@H](CCCNC(=N)N)NC(=O)[C@H](C)NC(=O)[C@@H]1CCCN1C(=O)[C@@H](N)[C@@H](C)O)C(C)C)[C@@H](C)O)C(=O)N[C@@H](Cc1ccccc1)C(=O)O` [pol 354] was tested. Which “XRN (number of supertype alleles bound ≦500 nM)” value (HLA supertype alleles; [5]) did it give?
Its value is 2.

What does the source list for `CC(C)C[C@H](NC(=O)[C@H](CC(N)=O)NC(=O)[C@@H]1CCCN1C(=O)[C@@H](NC(=O)[C@H](C)NC(=O)[C@H](Cc1ccccc1)NC(=O)[C@H](CCCCN)NC(=O)[C@@H]1CCCN1C(=O)[C@H](Cc1c[nH]c2ccccc12)NC(=O)[C@@H](N)CO)C(C)C)C(=O)O` [pol 392]?
Murine Immunogenicity (SU) (H2^bxd mice [1]): 261.0 SU; XRN (number of supertype alleles bound ≦500 nM) (HLA supertype alleles; [4]): 2

With `CC(C)C[C@H](NC(=O)[C@H](CO)NC(=O)[C@@H](N)CC(C)C)C(=O)N[C@@H](CC(=O)O)C(=O)N[C@H](C(=O)N[C@@H](CO)C(=O)N[C@@H](C)C(=O)N[C@@H](C)C(=O)N[C@@H](Cc1ccccc1)C(=O)N[C@@H](Cc1ccc(O)cc1)C(=O)O)C(C)C` [pol 415] as the molecule, how does the “XRN (number of supertype alleles bound ≦500 nM)” value (HLA supertype alleles; [4]) read?
Its value is 3.

With `CC(C)C[C@H](NC(=O)[C@H](CCCNC(=N)N)NC(=O)[C@H](C)NC(=O)[C@@H](NC(=O)[C@H](Cc1ccc(O)cc1)NC(=O)[C@H](CCCNC(=N)N)NC(=O)[C@H](CO)NC(=O)[C@H](CC(C)C)NC(=O)CN)C(C)C)C(=O)O` [pol 455] as the molecule, how does the “XRN (number of supertype alleles bound ≦500 nM)” value (HLA supertype alleles; [5]) read?
The value was 3.

For `CC(C)C[C@H](NC(=O)[C@H](CS)NC(=O)[C@H](Cc1c[nH]cn1)NC(=O)[C@@H]1CCCN1C(=O)[C@H](Cc1ccccc1)NC(=O)[C@H](C)N)C(=O)N[C@@H](C)C(=O)N[C@@H](Cc1ccccc1)C(=O)O` [pol 529], which “XRN (number of supertype alleles bound ≦500 nM)” value (HLA supertype alleles; [4]) is on record?
The value was 3.

For `CC[C@H](C)[C@H](NC(=O)CNC(=O)[C@H](CC(C)C)NC(=O)[C@H](CO)NC(=O)[C@H](CC(C)C)NC(=O)[C@H](CC(C)C)NC(=O)[C@@H](N)Cc1ccccc1)C(=O)N[C@@H](Cc1c[nH]cn1)C(=O)N[C@@H](CC(C)C)C(=O)O` [pol 562], which “XRN (number of supertype alleles bound ≦500 nM)” value (HLA supertype alleles; [5]) is on record?
The value was 3.

Which results are given for `CSCC[C@H](NC(=O)[C@H](CC(C)C)NC(=O)[C@H](C)NC(=O)[C@@H]1CCCN1C(=O)[C@H](Cc1ccc(O)cc1)NC(=O)CN)C(=O)N1CCC[C@H]1C(=O)N[C@@H](CC(C)C)C(=O)N[C@@H](Cc1ccc(O)cc1)C(=O)O` [pol 639]?
XRN (number of supertype alleles bound ≦500 nM) (HLA supertype alleles; [4]): 2; IC50 (HLA-A*2402): 280 nM

Which “XRN (number of supertype alleles bound ≦500 nM)” value (HLA supertype alleles) does the source give for `CC[C@H](C)[C@H](NC(=O)[C@H](CS)NC(=O)[C@H](C)NC(=O)[C@H](Cc1ccc(O)cc1)NC(=O)[C@H](CC(C)C)NC(=O)[C@@H]1CCCN1C(=O)[C@H](CCSC)NC(=O)[C@H](CC(C)C)NC(=O)[C@H](C)N)C(=O)O` [pol 642] here?
The value was 4.

For `CC(C)C[C@H](NC(=O)[C@H](C)NC(=O)[C@H](CO)NC(=O)[C@@H]1CCCN1C(=O)[C@@H](NC(=O)[C@H](Cc1ccc(O)cc1)NC(=O)[C@@H](NC(=O)[C@H](Cc1ccccc1)NC(=O)[C@H](CO)NC(=O)[C@@H](NC(=O)CN)[C@@H](C)O)C(C)C)C(C)C)C(=O)N[C@@H](CC(N)=O)C(=O)N1CCC[C@H]1C(=O)N[C@@H](C)C(=O)N[C@@H](CC(=O)O)C(=O)O` [pol 774], which “HIV-FT Immunogenicity magnitude” value ([2]; 100 μg HIV-FT plasmid DNA i.m., CTL response to the epitope) is on record?
The value was 0 LU.

What about the “Frequency (fraction of independent cultures yielding positive responses)” value ([2]; CTL response to the epitope after immunization with epigene construct HIV 1 (20 mer)) of the same molecule?
Its value is 0/8.

And the “HIV-FT Immunogenicity frequency (number cultures >2LU/total tested)” value ([2]; HIV-FT DNA)?
Its value is 0/8.

What about the “HIV-FT Immunogenicity frequency of positive cultures” value ([2]; HIV-FT DNA, positive = >2LU) of the same molecule?
The value was 0%.

What about the “Frequency (fraction of independent cultures yielding positive responses)” value ([2]; epigene construct HIV 1.1 (10 mer)) of the same molecule?
Its value is 0/4.

With LWFHISCLTF [core 101] as the molecule, how does the “Murine Immunogenicity (SU)” value (H2^bxd mice [1]) read?
Its value is 0.0 SU.

What about the “XRN (number of supertype alleles bound ≦500 nM)” value (HLA supertype alleles; [4]) of the same molecule?
The value was 3.

What about the IC50 (HLA-A*2402) of the same molecule?
The IC50 was 6.7 nM.

Which “Murine Immunogenicity (SU)” value (H2^bxd mice [1]) does the source give for RFSWLSLLVPF [env 332] here?
The value was 0.0 SU.

And the “XRN (number of supertype alleles bound ≦500 nM)” value (HLA supertype alleles; [4])?
Its value is 2.

And the IC50 (HLA-A*2402)?
The IC50 was 12 nM.

B1: HBV HTL: epigene construct encoding 16 HBV HTL epitopes with GPGPG spacers, SEQ ID NO: 73/74 (nucleic acid)
DNA: ATGGGAACTTCTTTTGTGTATGTCCCTTCCGCTCTGAACCCAGCAGACGGACCCGGGCCTGGCCTGTGCCAGGTCTTCGCCGACGCAACTCCCACAGGGTGGGGGCTGGGGCCAGGACCAGGCAGGCACTACCTGCATACTCTGTGGAAGGCAGGAATCCTCTATAAAGGGCCCGGCCCAGGCCCTCACCACACCGCCCTGAGGCAGGCCATCCTGTGCTGGGGGGAGCTCATGACCCTGGCCGGACCTGGACCCGGGGAGAGCAGACTGGTGGTGGATTTCAGCCAATTCAGCAGAGGAAACGGACCCGGCCCTGGGCCTTTTCTGCTGGCTCAGTTTACATCTGCTATTTGTTCTGTGGTCGGCCCCGGGCCCGGACTCGTGCCTTTCGTGCAGTGGTTCGTGGGACTGTCCCCTACAGTCGGGCCCGGCCCAGGGCTGCATCTGTACTCCCACCCAATCATCCTCGGCTTCCGCAAGATTGGACCCGGCCCAGGCTCCAGCAATCTCTCCTGGCTCTCTCTGGACGTGTCTGCCGCCTTTGGCCCTGGACCAGGCCTGCAAAGCCTGACTAATCTGCTCAGCAGCAACCTGTCCTGGCTGGGACCTGGCCCAGGGGCTGGCTTCTTTCTGCTCACCCGGATTCTCACAATTCCCCAGTCCGGACCAGGACCAGGAGTCAGTTTCGGGGTGTGGATCAGGACCCCTCCTGCTTATAGACCACCCAATGCTCCAATCGGCCCCGGCCCTGGCGTCGGGCCACTGACCGTGAATGAGAAGCGCCGGCTGAAGCTGATCGGCCCTGGCCCTGGCAAGCAGTGCTTTCGCAAACTGCCCGTGAACAGACCTATTGATTGGGGCCCCGGCCCTGGAGCAGCCAACTGGATTCTCAGGGGAACAAGCTTCGTCTACGTGCCCGGGCCCGGACCAGGGAAGCAGGCTTTTACCTTCTCTCCCACTTACAAGGCCTTCCTCTGTGGGCCAGGCCCCGGCGCCAAGTTTGTGGCAGCATGGACCCTCAAAGCCGCTGCCTGA
modifications: Hepatitis B virus
Which “Epitopes with responses as vigorous as those induced by peptides emulsified in CFA (%)” value (H2^bxd mice [3]; 100 μg i.m., IFN-γ production by CD4+ T-lymphocytes) does the source give for B1 here?
Its value is 50%.

What about the “Epitopes that failed to induce a response” value (H2^bxd mice [3]; mouse, in vivo) of the same molecule?
The value was “two”.

What about the “Epitopes with responses as vigorous as those induced by peptides emulsified in CFA (fraction of epitopes tested)” value (H2^bxd mice [3]; mouse, in vivo) of the same molecule?
The value was 6/12.

Reference: patent US7507803B2, “Optimized multi-epitope constructs and uses thereof” (priority 2002, dated 2009)
